Results taken from PubChem BioAssay (NCI).
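All cell lines were grown in 96-well plates and treated with compound for 48 hours. At the GI50, growth is halved. TGI is the concentration that stops growth completely.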

Assays:
Assay in all cases: DTP human tumour cell line panel, 48 h
[1] = test system: M14 melanoma
[2] = test system: NCI-H460 lung
[3] = test system: MDA-MB-231 breast
[4] = test system: UO-31 renal
[5] = test system: SK-MEL-5 melanoma
[6] = test system: SK-MEL-28 melanoma
[7] = test system: SF-295 CNS
[8] = test system: BT-549 breast
[9] = test system: MDA-MB-435
[10] = test system: DU-145 prostate

SMILES | TGI [1] [µM] | TGI [2] [µM] | TGI [3] [µM] | TGI [4] [µM] | TGI [5] [µM] | TGI [6] [µM] | TGI [7] [µM] | TGI [8] [µM] | TGI [9] [µM] | TGI [10] [µM] | GI50 [2] [µM] | GI50 [4] [µM] | GI50 [5] [µM] | GI50 [6] [µM] | GI50 [7] [µM] | GI50 [9] [µM] | GI50 [10] [µM] | GI50 [1] [µM] | GI50 [3] [µM] | GI50 [8] [µM]
CN(CCO)Cc1ncccc1O | > 100 | > 100 | > 100 | > 100 | > 100 | > 100 | > 100 | > 100 | > 100 | > 100 | – | – | – | – | – | – | – | – | – | –
c1cc(-c2ccc(-c3nc4ccc(C5=NCCN5)cc4s3)s2)ccc1C1=NCCN1 | – | – | 1.49 | 2.61 | – | – | 0.249 | 5.27 | – | 0.677 | – | – | – | – | – | – | – | – | – | –
COC(=O)c1c(C)[nH]c2c1C(=O)C(=O)c1nc(C)c(C)nc1-2 | 27 | > 100 | – | 35.7 | 20 | 25.2 | 18.3 | 23 | 28.5 | 25.5 | – | – | – | – | – | – | – | – | – | –
CN1CC(c2ccccc2)C(O)(C2(c3ccccc3)CN(C)CC(c3ccccc3)C2=O)C(c2ccccc2)C1 (stereo not given) | > 100 | > 100 | > 100 | > 100 | > 100 | > 100 | > 100 | > 100 | > 100 | > 100 | – | – | – | – | – | – | – | – | – | –
Clc1ccc(C2CC(c3cccc(Nc4ccncc4)c3)=NN2c2ccc(Cl)cc2)cc1 (stereo not given) | – | 3.61 | – | 2.74 | 3.15 | 3.09 | 2.96 | – | 3.24 | 3.49 | 1.86 | 1.42 | 1.74 | 1.67 | 1.58 | 1.71 | 1.88 | – | – | –
CCc1c2cc(OC)c(OC)cc2cc2c3cc(OC)c(OC)cc3cc[n+]12 (tested in a mixture with another compound) | > 86.6 | > 76 | 48.8 | > 71.6 | 48.9 | > 79.4 | > 86.7 | 17.4 | 25.5 | > 54.8 | – | – | – | – | – | – | – | – | – | –
O=C(O)CCO/N=C1/C(c2c(O)[nH]c3ccccc23)=Nc2ccccc21 | > 100 | > 100 | > 100 | 38.3 | 27.3 | > 100 | > 100 | > 100 | > 100 | 75.1 | – | – | – | – | – | – | – | – | – | –
CC[C@@]1(OC(=O)CN(C)C)C(=O)OCc2c1cc1n(c2=O)Cc2cc3c(N)cccc3nc2-1 | 0.128 | – | > 100 | 0.057 | – | 4.28 | – | > 100 | 0.259 | 0.081 | – | 0.0166 | – | 0.297 | – | 0.078 | 0.0115 | 0.0178 | 1.07 | 0.0634
OC(c1ccc(Cl)cc1)(c1ccc(Cl)cc1)c1cncnc1 | 32.8 | 36.4 | 33.9 | 31.3 | 27 | 38 | 37.2 | 42 | 36.7 | 59.8 | – | – | – | – | – | – | – | – | – | –
CCCCN(CCCC)CCC(O)c1cc(-c2ccc(C(F)(F)F)cc2)nc(-c2ccc(C(F)(F)F)cc2)c1 (stereo not given) | > 100 | > 100 | > 100 | > 100 | – | > 100 | > 100 | – | > 100 | > 100 | – | – | – | – | – | – | – | – | – | –
COc1ccc(C(=O)O[C@H]2CC[C@@]3(C)[C@@H]4CC[C@H]5[C@]6(O)C[C@H](O)[C@@]7(O)[C@@H](CN8C[C@@H](C)CC[C@H]8[C@@]7(C)O)[C@]6(O)C[C@@]53OC24O)cc1OC | > 100 | > 100 | > 100 | > 100 | > 100 | > 100 | > 100 | > 100 | > 100 | > 100 | – | – | – | – | – | – | – | – | – | –
CN(C)CCCNc1ccc2nnn3c4ccc(OC(=O)c5ccccc5)cc4c(=O)c1c23 | 28.3 | 25.2 | 27.3 | 20.8 | – | 30.2 | 24.3 | 32.7 | 19.1 | 22.9 | – | – | – | – | – | – | – | – | – | –
O=S(=O)(O)c1cc(S(=O)(=O)O)c2cc(N=Nc3c(O)ccc4ccccc34)ccc2c1 | > 100 | – | > 100 | > 100 | > 100 | > 100 | > 100 | > 100 | > 100 | > 100 | – | – | – | – | – | – | – | – | – | –
CCOC(=O)Nc1sc2c(c1C#N)CC(C)CC2 (stereo not given) | 17.4 | 17.3 | 46.7 | 46.1 | 16.6 | > 100 | > 100 | > 100 | > 100 | > 100 | – | – | – | – | – | – | – | – | – | –
O=C1CCCC/C1=C1/SC(=Nc2ccccc2)C(=Nc2ccccc2)N1c1ccccc1 | > 100 | > 100 | > 100 | > 100 | – | > 100 | > 100 | > 100 | – | > 100 | – | – | – | – | – | – | – | – | – | –
O=C(Nn1c(-c2cccs2)nc2ccc(I)cc2c1=O)c1ccccc1 | > 100 | > 100 | – | 93.3 | 76.8 | 53 | 91.7 | 51.9 | 45.7 | 46.7 | – | – | – | – | – | – | – | – | – | –

SMILES | TGI [1] [µM] | TGI [2] [µM] | TGI [3] [µM] | TGI [4] [µM] | TGI [5] [µM] | TGI [6] [µM] | TGI [7] [µM] | TGI [8] [µM] | TGI [9] [µM] | TGI [10] [µM] | GI50 [2] [µM] | GI50 [4] [µM] | GI50 [5] [µM] | GI50 [6] [µM] | GI50 [7] [µM] | GI50 [9] [µM] | GI50 [10] [µM] | GI50 [1] [µM] | GI50 [3] [µM] | GI50 [8] [µM]
CC1C2CCC3C(O)C2(CC(O)C2(O)C1CC(O)C2(C)C)CC3(C)O (stereo not given) | > 100 | > 100 | > 100 | > 100 | > 100 | > 100 | > 100 | > 100 | > 100 | > 100 | – | – | – | – | – | – | – | – | – | –
COc1ccc(/C=C2\C[C@H]3[C@@H]4CC=C5C[C@@H](OC(C)=O)CC[C@]5(C)[C@H]4CC[C@]3(C)\C2=N\O)cc1OC | > 100 | > 100 | – | 91.6 | 9.83 | > 100 | > 100 | > 100 | > 100 | > 100 | – | – | – | – | – | – | – | – | – | –
CCC1C(C#N)=C(O)NC(O)=C1C#N | > 100 | > 100 | – | > 100 | > 100 | > 100 | > 100 | – | – | – | – | – | – | – | – | – | – | – | – | –
O=C1C[C@H](COCc2ccccc2)NC(=O)C[C@H](COCc2ccccc2)NC(=O)C[C@H](COCc2ccccc2)N1 | > 100 | > 100 | 85.2 | > 100 | > 100 | > 100 | 89.2 | > 100 | > 100 | > 100 | – | – | – | – | – | – | – | – | – | –
COC1CC(OC2CCC3(C)C(=CCC4C3C(OC(C)=O)C(OC(=O)CC(C)C)C3(C)C(C(C)=O)CCC43O)C2)OC(C)C1OC1CC(OC)C(OC2CC(OC)C(OC3OC(C)C(O)C(OC)C3O)C(C)O2)C(C)O1 (stereo not given) | > 100 | > 100 | 65.6 | > 100 | 42.7 | > 100 | > 100 | 69.6 | 63.5 | > 100 | – | – | – | – | – | – | – | – | – | –
CC[C@H](C)C1=C(OC(C)=O)[N@+]2([O-])Oc3ccc(-c4c(O)c(O)c(-c5ccc(OC(C)=O)cc5)c(OC(C)=O)c4OC(C)=O)cc3O[C@]2([C@@H](C)CC)C(=O)N1O | > 50 | > 50 | > 50 | > 50 | > 50 | > 50 | > 50 | > 50 | > 50 | > 50 | – | – | – | – | – | – | – | – | – | –
Nc1c(OCC(=O)O)ccc2cc(S(=O)(=O)O)ccc12 | > 100 | > 100 | > 100 | > 100 | > 100 | > 100 | > 100 | > 100 | > 100 | > 100 | – | – | – | – | – | – | – | – | – | –
O=C(O)C(O)(c1ccc(-c2ccccc2)cc1)c1ccc(-c2ccccc2)cc1 | > 100 | 45.9 | 79.1 | > 100 | 37.4 | > 100 | 68.8 | 42.7 | 43.7 | 40.6 | – | – | – | – | – | – | – | – | – | –
CO/N=C(/C)c1cccc(Nc2nc3ccc(Cl)cc3c3[nH]c4ccccc4c23)c1 | 20.7 | 18.8 | 27.8 | 21.7 | 16.9 | – | 15.3 | – | 21.4 | 24.9 | – | – | – | – | – | – | – | – | – | –
C[C@]12Cc3cnc(-c4ccccc4)nc3C[C@@H]1CC[C@@H]1[C@@H]2CC[C@@]2(C)[C@H]1CC[C@]2(C)O | 32.5 | 39.4 | 73.1 | 7.06 | 42.9 | 56.9 | 52.4 | 54.6 | > 70.4 | 44.1 | – | – | – | – | – | – | – | – | – | –
O=C(O)C1OC1C(=O)O (stereo not given) | > 100 | > 100 | > 100 | > 100 | > 100 | > 100 | > 100 | > 100 | > 100 | > 100 | – | – | – | – | – | – | – | – | – | –
CC(C)=Cc1cc(C)c2c3c(c(O)c(O)c(C)c13)C(C)=CC2=O | 48.9 | 55.9 | 64.4 | > 100 | 35 | – | 48.6 | – | 55.1 | 89 | – | – | – | – | – | – | – | – | – | –
O=NN1C(c2ccccc2)C2CCCC(C2=O)C1c1ccccc1 (stereo not given) | – | 48.3 | – | > 76.2 | 35.7 | 44.3 | > 84.2 | – | – | – | – | – | – | – | – | – | – | – | – | –
Cc1cn(C2C=CC(COP(=O)(OCc3ccc([N+](=O)[O-])o3)N(C)CCCCCl)O2)c(=O)[nH]c1=O (stereo not given) | 17.3 | 23.6 | 25.9 | 31.1 | 3.26 | 22.4 | 30 | – | 4.42 | 26.1 | – | – | – | – | – | – | – | – | – | –
NC1C=NNC1=O (stereo not given) | > 100 | – | – | > 100 | > 100 | > 100 | > 100 | – | – | – | – | – | – | – | – | – | – | – | – | –
CCOC(=O)c1nc2ccccc2n(CC)c1=O | > 100 | > 100 | > 100 | > 100 | > 100 | > 100 | > 100 | > 100 | > 100 | > 100 | – | – | – | – | – | – | – | – | – | –
